According to PubChem BioAssay AID1671245:

Target: Casein kinase I isoform epsilon (Homo sapiens) (UniProt P49674)
Assay: CSNK1E kinase inhibitors, dose response, biochemical, Z'-LYTE, FRET, direct format (AID 1671245)
Details: Z'-LYTE FRET kinase activity assay, recombinant CSNK1E

Casein kinase I isoform epsilon (Homo sapiens), sequence (P49674 whole entry, looked up, canonical isoform): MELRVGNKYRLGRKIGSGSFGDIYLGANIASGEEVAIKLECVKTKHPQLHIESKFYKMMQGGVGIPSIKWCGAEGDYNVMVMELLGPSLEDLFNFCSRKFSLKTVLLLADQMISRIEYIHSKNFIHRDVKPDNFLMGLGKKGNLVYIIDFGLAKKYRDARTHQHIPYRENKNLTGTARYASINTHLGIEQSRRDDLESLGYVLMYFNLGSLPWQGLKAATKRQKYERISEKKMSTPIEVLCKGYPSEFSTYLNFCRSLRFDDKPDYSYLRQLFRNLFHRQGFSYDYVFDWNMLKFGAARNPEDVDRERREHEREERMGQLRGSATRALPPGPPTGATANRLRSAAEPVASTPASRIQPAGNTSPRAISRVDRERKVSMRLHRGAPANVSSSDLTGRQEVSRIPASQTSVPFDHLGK

- IC50: 4.83 µM
Structure (SMILES): Brc1c(Br)c(Br)c2n[nH]nc2c1Br
